Measured values from patent US20070107083A1, “Method for regulating plant growth” (priority 2004, published 2007).
“Also recorded” adds a separate entry of the source.

Assays:
[1] = test system: DOGT1 promoter (PDOGT1-GUS); format: in vivo, Arabidopsis thaliana; conditions: seedlings; DON 5 ppm for 4 h, ACC 2 μM for 1 h, SA 200 μM for 12 h, JA 50 μM for 1 h
DOGT1 (UGT73C5) mRNA = experiment: Semiquantitative RT-PCR of DOGT1 mRNA after compound treatment; format: in vivo, Arabidopsis thaliana; conditions: for DOGT1 mRNA expression (RT-PCR): seedlings in liquid MS, 5 ppm DON, 200 μM SA, 2 μM ACC or 50 μM JA
UGT73C4 mRNA = experiment: Semiquantitative RT-PCR of 73C4 mRNA after compound treatment; format: in vivo, Arabidopsis thaliana; conditions: seedlings in liquid MS; 5 ppm DON, 200 μM SA
UGT73C6 mRNA = experiment: Semiquantitative RT-PCR of 73C6 mRNA after compound treatment; format: in vivo, Arabidopsis thaliana; conditions: seedlings in liquid MS, 5 ppm DON, 200 μM SA, 2 μM ACC or 50 μM JA
[2] = test system: Saccharomyces cerevisiae strain YZGA452; format: cell-based
[3] = test system: Wild-type Saccharomyces cerevisiae; format: cell-based
[4] = test system: A. thaliana high DOGT1-expression line (1319/2); experiment: Phenotype of DOGT1-overexpressing seedlings on brassinosteroid media; format: in vivo, Arabidopsis thaliana; conditions: 10 day old seedlings
Procedure: (§1) 10 day old seedlings were transferred to MS media resp. MS media containing 1.0 μM BL and incubated for another 10 days before phenotypic analysis. […] Right: Seedlings of lines expressing DOGT1 grown on MS media show a BR-deficient phenotype (short hypocotyls and smaller leaves with shorter petioles compared to wild-type).
(§2) Plant material and growth conditions. A. thaliana experiments were conducted with the wild-type ecotype Columbia-0 (Col-0). For propagation seeds were sterilized, plated on standard MS growth medium (Murashige et al., Plant Physiology 15 (1962), 473-497) supplemented with 1.0% sucrose and 1.0% phytagar (Life Technologies) and subjected to a 2 day dark treatment at 4° C. to synchronize germination. The seedlings were grown for 2 weeks in a controlled environment of 16 h/8 h light-dark cycle (140 μmol m^−2 sec^−1 white light) at 22° C. before they were transferred to soil and grown at 20° C. and 55% humidity under continuous white light.
(§3) The effect of externally applied epi-brassinolide (epi-BL) was determined by transferring 10 day old seedlings of wild-type and a high DOGT1-expression line (1319/2) to media containing different concentrations of the brassinosteroid. The plants were incubated for 10 days before the phenotype was analysed.

[5] = test system: A. thaliana wild-type Col-0; experiment: Phenotype of wild-type seedlings on brassinosteroid media; format: in vivo, Arabidopsis thaliana; conditions: 10 day old seedlings
Procedure: as §1, §2, §3

[6] = test system: dwarf mutants with defects in BR biosynthesis; conditions: application of brassinolide; cited from earlier work
[7] = MS media containing 1.0 μM BL, another 10 days
[8] = media with different concentrations, 10 days

| SMILES | PDOGT1-GUS expression [1] | DOGT1 mRNA expression (RT-PCR) (DOGT1 (UGT73C5) mRNA) | 73C4 mRNA expression (RT-PCR) (UGT73C4 mRNA) | 73C6 mRNA expression (RT-PCR) (UGT73C6 mRNA) | other results |
| --- | --- | --- | --- | --- | --- |
| O=C(O)c1ccccc1O [SA, salicylic acid] | No induction of expression | rather weakly; also recorded: responded weekly with elevated mRNA levels | rather weakly | rather weakly; also recorded: responded weekly with elevated mRNA levels | – |
| CC1=C[C@H]2O[C@@H]3[C@H](O)C[C@](C)([C@@]2(CO)[C@H](O)C1=O)[C@]31CO1 [DON, deoxynivalenol] | induce PDOGT1-GUS expression | DON inducible expression | DON inducible | stronger induction of expression | growth of yeast transformed with the empty library plasmid ([2]; 180 ppm DON in media): completely inhibit growth; sensitivity of strain YZGA452 ([2]; strain deficient in four ABC transporters): hypersensitive; resistance of wild-type yeast [3]: highly resistant; time of peak of transcript amounts (DOGT1 (UGT73C5) mRNA; incubation with 5 ppm DON, stated for DOGT1, 73C4 and 73C6 transcripts): 4 h |
| CC(C)[C@H](C)[C@@H](O)[C@H](O)[C@@H](C)[C@H]1CC[C@H]2[C@@H]3COC(=O)[C@H]4C[C@H](O)[C@H](O)C[C@]4(C)[C@H]3CC[C@]12C [BL, Brassinolide] | – | – | – | – | phenotype of DOGT1-expressing seedlings [4, 7]: restores wild-type growth; phenotype of wild-type seedlings [5, 7]: typical growth response; growth of dwarf mutants with defects in BR biosynthesis [6]: restores normal growth |
| CC/C=C\C[C@H]1C(=O)CC[C@@H]1CC(=O)O [JA, jasmonic acid] | No induction of expression | responded weekly with elevated mRNA levels | – | responded weekly with elevated mRNA levels | DOGT1 mRNA expression (RT-PCR) (DOGT1 (UGT73C5) mRNA; listed as Jasmonic acid): weak induction of expression; 73C6 mRNA expression (RT-PCR) (UGT73C6 mRNA; listed as Jasmonic acid): weak induction of expression |
| CC(C)[C@@H](C)[C@@H](O)[C@H](O)[C@@H](C)[C@H]1CC[C@H]2[C@@H]3COC(=O)[C@H]4C[C@H](O)[C@H](O)C[C@]4(C)[C@H]3CC[C@]12C [epi-BL, epi-brassinolide] | – | – | – | – | phenotype of high DOGT1-expression line 1319/2 [4, 8]: restored to wild-type phenotype; phenotype of Col-0 [5, 8]: typical growth response |
